Experimental data reported in patent US11542471B2, “Method for producing ciliary marginal zone-like structure” (SUMITOMO CHEMICAL COMPANY, LIMITED, priority 2012, dated 2023).

System: cell aggregate containing a retinal tissue (RAX::GFP knock-in human ES cells, derived from KhES-1)
Test: Suspension culture of a human ES cell-derived cell aggregate containing retinal tissue in serum-free medium with a substance acting on the Wnt signal pathway; cryosection immunostaining
Format: cell-based
Conditions: 3 μM CHIR99021, serum-free medium, 3 days from day 18 of suspension culture
Description: The “proportion of Chx10 positive cells” in a retinal tissue contained in a cell aggregate produced as mentioned above can be examined by, for example, the following method. • (1) First, a cryosection of “a cell aggregate comprising a retinal tissue” is prepared. • (2) Then, immunostaining of Rax protein or, when a gene recombinant cell obtained by altering a Rax gene expressing cell to express a fluorescence protein such as GFP is used, the expression of the aforementioned fluorescence protein, is observed using a fluorescence microscope and so on, whereby a retinal tissue region expressing Rax gene is specified. • (3) Using the same section as the cryosection wherein the retinal tissue region expressing Rax gene has been specified or an adjacent section as a sample, the nucleus is stained with a nuclear staining reagent such as Dapi. Then, the number of stained nuclei in the above-specified retinal tissue region expressing Rax gene is counted, whereby the number of the cells in the retinal tissue region is measured. • (4) Using the same section as the cryosection wherein the retinal tissue region expressing Rax gene has been specified or an adjacent section as a sample, Chx10 protein is immunostained. […]

For `Cc1c[nH]c(-c2cnc(NCCNc3ccc(C#N)cn3)nc2-c2ccc(Cl)cc2Cl)n1` [CHIR99021], which “appearance of RPE65 gene expressing cell in the cell aggregate” value is on record?
Its value is “did not appear”.

And the “proportion of Chx10 positive cells in the retinal tissue” value (about 40% before addition)?
The value was “about 3%”.
